Earlier results as cited in patent US10238615B2 (Bracco S.P.A., priority 2011, dated 2019).

N[C@@H](Cc1cc(I)c(Oc2ccc(O)c(I)c2)c(I)c1)C(=O)O [Example T3, 3,5,3′-triiodothyronine]
Serum levels of thyreotropic hormone (TSH) (euthyroid rats): significant reduction | Plasma level of total T3 obtained by standard therapy (20 μg T3): 196.6 ng/dL | Time of peak level in serum (synthetic T3 once administered): 2 to 3 h | Time to complete clearance from blood (synthetic T3 once administered): 12 to 24 h
